Data reported in publication PMC11406361, “Several orphan solute carriers functionally identified as organic cation transporters: Substrates specificity compared with known cation transporters” (The Journal of Biological Chemistry, 2024).

How the values were obtained:
SLC35F5 = target: T1, SLC35F5 (Homo sapiens, UniProt Q8WV83); assay: Uptake ratio screen, SLC35F5-overexpressing HEK293 over empty vector cells; format: cell-based; set-up: by amplifying the entire gene-of-interest within the HEK293 genome via a long-range PCR; conditions: 2.5 μM, 2 min
T1 sequence (Q8WV83 1-523): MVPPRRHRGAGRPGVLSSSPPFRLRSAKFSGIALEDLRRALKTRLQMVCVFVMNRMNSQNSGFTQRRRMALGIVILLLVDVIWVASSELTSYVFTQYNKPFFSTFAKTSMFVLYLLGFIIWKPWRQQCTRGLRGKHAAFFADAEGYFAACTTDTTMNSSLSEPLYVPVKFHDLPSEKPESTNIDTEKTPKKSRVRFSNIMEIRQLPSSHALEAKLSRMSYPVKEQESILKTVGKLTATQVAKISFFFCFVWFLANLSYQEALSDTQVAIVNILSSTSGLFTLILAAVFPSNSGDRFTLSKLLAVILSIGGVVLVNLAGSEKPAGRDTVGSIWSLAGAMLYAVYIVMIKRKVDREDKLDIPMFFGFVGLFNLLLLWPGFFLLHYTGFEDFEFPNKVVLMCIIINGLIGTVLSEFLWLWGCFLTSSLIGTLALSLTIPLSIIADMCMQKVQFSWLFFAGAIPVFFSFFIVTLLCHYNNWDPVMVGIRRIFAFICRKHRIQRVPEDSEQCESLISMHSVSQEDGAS
Experimental: (§1) Typically discussed substrates of the proton organic-cation antiporter ([14]) are highlighted in dark green in Figure 1.
(§2) In preparation for transport experiments, 24-well plates were pre-coated with poly-D-lysine (Sigma-Aldrich) and 300,000 cells were plated per well and incubated for 48 h. Firstly, the 24-well plate was placed on a heating plate at 37 °C, and the cells were washed with 37 °C HBSS^+ buffer (Hank’s balanced salt solution supplemented with 10 mM Hepes and adjusted to pH 7.4; Thermo Fisher Scientific). The substance-of-interest, which was diluted in 37 °C HBSS^+ to a desired concentration, was added to the cells for exactly 2 min. […] The uptake was stopped with ice-cold HBSS^+, and the 24-well plate was removed from the heating plate. The cells were washed twice with the cold HBSS^+ before they were lysed for 15 min with 80% (v/v) acetonitrile containing the respective internal standard for mass spectrometry. For variations in seeded cell numbers between the cell lines, several wells were lysed in RIPA buffer and used for total protein quantification using a bicinchoninic assay ([74]) and bovine serum albumin as calibration.
(§3) The intracellular drug concentrations after transport experiments were analyzed by high-performance liquid chromatography coupled to tandem mass spectrometry analysis. The HPLC consisted of a Shimadzu Nexera HPLC System with a SIL-30AC autosampler, a LC-30AD pump, a CTO-20AC column oven, and a CBM-20A controller (Shimadzu). The reverse-phase chromatography of compounds was accomplished with a Brownlee SPP RP-Amide column with 4.6 × 100 mm inner dimensions, a particle size of 2.7 μm, and a preceding Phenomenex C-18 guard column. The mobile phase was composed of an organic additive with acetonitrile:methanol 6:1 (v/v) in total concentrations between 3% and 50% (v/v) and 0.1% (v/v) formic acid in the aqueous component of the eluent. During separation, the column oven was held at 40 °C and the mobile phase was maintained at a flow rate of 300 or 400 μl/min. After separation, the detection of substances was performed with an API 4000 tandem mass spectrometer (AB SCIEX, https://sciex.com/support/software-support/software-downloads), followed by quantification of results with the Analyst software (AB SCIEX, version 1.6.2). The composition of chromatographic conditions, as well as detailed mass spectrometric detection parameters, are listed in Table S5.
(§4) Transport-mediated net uptake was determined as fold-increase of transporter-overexpressing cells over empty vector–transfected control cells.

SLC35E1 [1] = target: T2, SLC35E1 (Homo sapiens, UniProt Q96K37)
SLC44A2 = SLC44A2 (Homo sapiens, UniProt Q8IWA5); conditions: 2.5 μM, 2 min, HEK293
Experimental: as §1, §2, §3, §4

SLC35E1 [2] = target: T2, SLC35E1; conditions: 2.5 μM, 2 min, HEK293
Experimental: as §1, §2, §3, §4

SLC5A7 = conditions: read-out: KM of choline transport by SLC5A7; high-affinity choline transporter; ref [46]; cited from earlier work
SLC35F2 = target: T3, SLC35F2 (Homo sapiens, UniProt Q8IXU6); conditions: human
T3 sequence (Q8IXU6 1-374): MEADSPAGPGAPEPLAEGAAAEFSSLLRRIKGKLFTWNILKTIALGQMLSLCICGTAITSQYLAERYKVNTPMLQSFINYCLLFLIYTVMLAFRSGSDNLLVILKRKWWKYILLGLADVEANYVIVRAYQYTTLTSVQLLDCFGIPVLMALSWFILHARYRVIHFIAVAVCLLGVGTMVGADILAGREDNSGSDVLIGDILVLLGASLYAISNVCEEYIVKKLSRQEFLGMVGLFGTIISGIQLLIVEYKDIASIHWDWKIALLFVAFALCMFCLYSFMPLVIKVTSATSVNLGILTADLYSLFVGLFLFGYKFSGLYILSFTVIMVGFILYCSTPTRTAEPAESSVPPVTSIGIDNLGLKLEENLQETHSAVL

T2 sequence (Q96K37 whole entry): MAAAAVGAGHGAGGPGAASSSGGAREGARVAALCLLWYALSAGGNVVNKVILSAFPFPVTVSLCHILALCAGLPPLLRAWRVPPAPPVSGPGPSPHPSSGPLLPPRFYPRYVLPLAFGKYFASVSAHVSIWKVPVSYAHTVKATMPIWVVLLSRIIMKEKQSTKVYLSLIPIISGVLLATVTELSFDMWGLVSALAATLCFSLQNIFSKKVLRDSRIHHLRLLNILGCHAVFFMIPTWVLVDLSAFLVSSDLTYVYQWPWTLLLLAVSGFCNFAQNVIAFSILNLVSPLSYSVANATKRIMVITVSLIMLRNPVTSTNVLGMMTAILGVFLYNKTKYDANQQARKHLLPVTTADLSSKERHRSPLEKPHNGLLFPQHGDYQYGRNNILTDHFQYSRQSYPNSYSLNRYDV
SLC44A2, sequence (Q8IWA5 whole entry): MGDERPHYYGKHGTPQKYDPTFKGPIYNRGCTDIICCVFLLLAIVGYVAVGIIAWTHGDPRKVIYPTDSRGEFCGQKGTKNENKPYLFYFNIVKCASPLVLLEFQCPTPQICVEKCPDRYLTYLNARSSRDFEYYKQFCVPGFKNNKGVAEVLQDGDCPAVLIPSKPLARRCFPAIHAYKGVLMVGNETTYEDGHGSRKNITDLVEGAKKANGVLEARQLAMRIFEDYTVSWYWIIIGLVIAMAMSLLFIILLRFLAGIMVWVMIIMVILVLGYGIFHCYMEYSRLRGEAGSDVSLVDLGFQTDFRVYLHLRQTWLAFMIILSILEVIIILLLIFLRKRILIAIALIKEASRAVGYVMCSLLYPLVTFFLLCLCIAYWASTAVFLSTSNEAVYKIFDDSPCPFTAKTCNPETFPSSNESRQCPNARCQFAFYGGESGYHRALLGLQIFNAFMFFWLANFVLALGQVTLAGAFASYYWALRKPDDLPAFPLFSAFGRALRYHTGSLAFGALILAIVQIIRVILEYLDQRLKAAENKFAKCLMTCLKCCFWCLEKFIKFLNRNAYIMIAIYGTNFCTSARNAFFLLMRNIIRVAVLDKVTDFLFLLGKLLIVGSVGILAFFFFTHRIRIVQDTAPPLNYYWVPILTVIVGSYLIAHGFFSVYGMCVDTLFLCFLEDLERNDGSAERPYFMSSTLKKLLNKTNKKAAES

For `C[N+](C)(C)CCO` [Choline], the “Uptake by SLC35F5 (in words)” value (SLC35F5) was “highest uptake rates”, the “Clint (±SEM)” value (SLC35E1 [1]) was 0.95 (±0.57) μl × mg protein^-1 × min^-1 and the “Uptake by SLC44A2 (CTL2) (in words)” value (SLC44A2) was “moderate choline uptake”. The “Uptake by SLC35E1 (in words)” value (SLC35E1 [2]) was “significantly enhanced”, the Km (SLC5A7) was 2 µM and the “Clint (±SEM)” value (SLC35F2) was 2.48 (±1.47) μl × mg protein^-1 × min^-1.
